Source: patent publication US20250074871A1, “PHENETHYLAMINES AND METHODS OF PREPARATION THEREOF” (priority 2022, published 2025)
Where two headings read alike, the source gives them in different places.

Assays:
Assay type in all cases: cell-based
[1] = molecular target: T1, 5-HT2C receptor (Homo sapiens, UniProt P28335); experiment: cell-based; conditions: Table 2; for EC50: at least three replicate trials, read-out: 5-HT2C BRET EC50; for 5-HT2C BRET Eff %: normalized to % 5-HT stimulation
T1 construct: expressed in transfected cells; host or cells: HEK293T
T1 sequence (P28335 33-458): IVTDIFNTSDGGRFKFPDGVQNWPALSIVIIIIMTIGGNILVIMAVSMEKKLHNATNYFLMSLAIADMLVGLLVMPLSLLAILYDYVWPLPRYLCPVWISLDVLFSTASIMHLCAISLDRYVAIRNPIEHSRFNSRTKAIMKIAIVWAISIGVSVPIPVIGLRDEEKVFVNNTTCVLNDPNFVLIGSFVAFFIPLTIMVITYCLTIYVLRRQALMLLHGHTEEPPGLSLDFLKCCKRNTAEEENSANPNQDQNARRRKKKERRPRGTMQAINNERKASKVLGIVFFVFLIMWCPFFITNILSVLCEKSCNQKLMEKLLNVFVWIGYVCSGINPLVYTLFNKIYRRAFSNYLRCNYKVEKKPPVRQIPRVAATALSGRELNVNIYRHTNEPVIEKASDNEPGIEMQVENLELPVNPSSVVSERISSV

[2] = molecular target: T2, 5-HT2A receptor (Homo sapiens, UniProt P28223); experiment: 5-HT2A Gq dissociation BRET functional assay; conditions: Table 2; for EC50: at least three replicate trials; for 5-HT2A BRET Eff %: normalized to % 5-HT stimulation
T2 construct: expressed in transfected cells; host or cells: HEK293T
T2 sequence (P28223 whole entry): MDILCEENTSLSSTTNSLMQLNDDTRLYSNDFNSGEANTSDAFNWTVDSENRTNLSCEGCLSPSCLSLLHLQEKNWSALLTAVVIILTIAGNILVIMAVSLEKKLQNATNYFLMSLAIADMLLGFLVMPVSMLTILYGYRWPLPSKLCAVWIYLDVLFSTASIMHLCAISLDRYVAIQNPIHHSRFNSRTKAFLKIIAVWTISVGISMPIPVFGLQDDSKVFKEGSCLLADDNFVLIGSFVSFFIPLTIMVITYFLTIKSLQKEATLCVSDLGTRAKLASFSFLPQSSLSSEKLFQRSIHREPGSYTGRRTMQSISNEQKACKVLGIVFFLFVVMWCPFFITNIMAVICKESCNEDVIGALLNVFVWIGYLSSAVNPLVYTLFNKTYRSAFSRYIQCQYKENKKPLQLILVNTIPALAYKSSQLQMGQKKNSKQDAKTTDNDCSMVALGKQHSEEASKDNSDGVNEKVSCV

[3] = molecular target: T3, 5-HT2B receptor (Homo sapiens, UniProt P41595); experiment: 5-HT2B Gq dissociation BRET functional assay; conditions: Table 2; for EC50: at least three replicate trials; for 5-HT2B BRET Eff %: normalized to % 5-HT stimulation
T3 construct: expressed in transfected cells; host or cells: HEK293T
T3 sequence (P41595 whole entry): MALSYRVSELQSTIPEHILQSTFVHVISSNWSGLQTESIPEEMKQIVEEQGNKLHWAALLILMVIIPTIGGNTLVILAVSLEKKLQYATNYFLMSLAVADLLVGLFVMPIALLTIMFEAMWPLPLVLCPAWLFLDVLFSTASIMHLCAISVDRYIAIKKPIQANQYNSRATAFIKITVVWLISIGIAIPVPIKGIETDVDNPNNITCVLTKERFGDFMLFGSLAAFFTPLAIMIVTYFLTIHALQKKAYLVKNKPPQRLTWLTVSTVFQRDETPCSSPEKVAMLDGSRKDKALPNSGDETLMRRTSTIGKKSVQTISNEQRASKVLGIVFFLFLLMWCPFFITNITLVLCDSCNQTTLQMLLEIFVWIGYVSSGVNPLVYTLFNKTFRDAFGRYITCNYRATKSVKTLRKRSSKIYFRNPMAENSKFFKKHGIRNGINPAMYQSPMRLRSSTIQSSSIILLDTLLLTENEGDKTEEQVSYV

| Compound | EC50 [1] [nM] | 5-HT2C BRET Eff % [1] [%] | EC50 ([2]; 5-HT2A BRET EC50 (nM)) [nM] | 5-HT2A BRET Eff % [2] [%] | EC50 ([3]; 5-HT2B BRET EC50 (nM)) [nM] | 5-HT2B BRET Eff % [3] [%] | EC50 ([2]; read-out: 5-HT2A BRET EC50) [nM] | EC50 ([3]; read-out: 5-HT2B BRET EC50) [nM] | 5-HT2B BRET EC50 (nM) / Eff % [3] | 5-HT2C BRET EC50 (nM) / Eff % (merged cell, word) [1] |
| --- | --- | --- | --- | --- | --- | --- | --- | --- | --- | --- |
| COc1cc(C#N)ccc1CCNCc1ccccc1O [Cpd #113] | 30.3 | 102 | 4.9 | 90 | 1290 | 34 | – | – | – | – |
| N#Cc1ccc(CCNCc2ccccc2O)cc1 [Cpd #114] | 322 | 92 | – | 88 | – | 11 | 154 | 6490 | – | – |
| N#Cc1ccc(CCNCc2ccccc2O)c(OC(F)(F)F)c1 [Cpd #115] | 380 | 104 | 212 | 94 | – | – | – | – | Inactive | – |
| Oc1cc(C(F)(F)F)ccc1CCNCc1ccccc1O [Cpd #116] | 1.7 | 100 | 1 | 89 | – | – | – | – | Inactive | – |
| COc1ccc(CCNCc2ccccc2SC)c(O)c1 [Cpd #119] | 114 | 119 | 4.6 | 100 | 2540 | 108 | – | – | – | – |
| CSc1ccccc1CNCCc1ccc(O)cc1O [Cpd #120] | – | – | – | 90 | – | – | 518 | – | Inactive | Inactive |
| CSc1ccc(CCNCc2ccccc2SC)c(O)c1 [Cpd #121] | 44.1 | 110 | 3.6 | 94 | 175 | 89 | – | – | – | – |
| CSc1ccccc1CNCCc1ccc(C(F)F)cc1O [Cpd #123] | 30 | 120 | 3.2 | 96 | 6720 | 95 | – | – | – | – |
| N#Cc1ccc(CCNCc2ccccc2OC(F)(F)F)c(O)c1 [Cpd #124] | 21.1 | 98 | – | 83 | – | 97 | 159 | 453 | – | – |
| CCCCCc1ccc(CCNCc2ccccc2O)c(OC)c1 [Cpd #125] | 55.8 | 105 | 13.5 | 96 | – | – | – | – | Inactive | – |
| COc1cc(Cc2ccccc2)ccc1CCNCc1ccccc1O [Cpd #126] | 3.8 | 111 | – | 99 | – | −23 | 1.2 | 0.02 | – | – |
| COc1cc(Oc2ccccc2)ccc1CCNCc1ccccc1O [Cpd #127] | 148 | 104 | – | 100 | – | −20 | 27.1 | 3.8 | – | – |
| COc1cc(C#N)c(F)cc1CCNCc1ccccc1SC [Cpd #128] | 114 | 118 | 7.8 | 99 | 723 | 109 | – | – | – | – |
| N#Cc1cc(O)c(CCNCc2ccccc2O)cc1F [Cpd #129] | 67 | 105 | 7.8 | 95 | 249 | 62 | – | – | – | – |
| COc1ccccc1CNCCc1ccc(F)cc1O [Cpd #130] | 8.7 | 101 | 18 | 84 | – | – | – | – | Inactive | – |
| Cc1ccc(CCNCc2cccc3c2OCO3)c(O)c1 [Cpd #132] | 770 | 84 | 49 | 70 | – | – | – | – | Inactive | – |
| COc1cc(C#N)ccc1CCNCC1CC1 [Cpd #133] | 34400 | 71 | – | 64 | – | −6 | 10700 | 0.07 | – | – |
| CSc1ccccc1CCNCCc1ccc(C#N)cc1O [Cpd #134] | 160 | 87 | – | 67 | – | 85 | 384 | 620 | – | – |
| CSc1ccccc1CCCNCCc1ccc(C#N)cc1O [Cpd #135] | 121 | 65 | – | 51 | – | 15 | 423 | 502 | – | – |
| CSc1ccccc1CNCCCc1ccc(C#N)cc1O [Cpd #136] | 412 | 43 | – | 55 | – | 49 | 1380 | 7330 | – | – |
